Experimental data taken from patent EP0013144A1, “Substituted diphenylamine derivatives, compositions and herbicidal uses thereof, and processes for their preparation” (ICI AUSTRALIA LIMITED, priority 1978, dated 1980).

Key:
Format in all cases: in vivo
Wheat = experiment: Post-emergence herbicidal activity (Example 32); parameters: key: 0-3 scale: 0 = 0-25% damage, 3 = 75-99% kill, 3+ = 100% kill; conditions: 5 kg/ha, 3 weeks after spraying
Method: (§1) Concentrated formulations of the compounds of the invention were prepared by: • a) in the case of oils and waxy solids, dissolving the compound in toluene containing 7% v/v "Teric" N13 ("Teric" is a Trade MarK and "Teric" N13, a product of ethoxylation of nonylphenol, is available from ICI Australia Limited) and 3% v/v "Kemmat" SC15B ("Kemmat" is a Trade Mark and "Kemmat" SC15B is a formulation of calcium dodecylbenzene sulfonate); or • b) in the case of crystalline solids, adding 5 parts by weight of the compound and 1 part by weight of . ''Dyapol" PT ("Dyapol" is a Trade Mark and "Dyapol" PT is an anionic suspending agent) to 94 parts by weight of an aqueous solution containing 0.25% v/v of "Teric" N8 (a product of ethoxylation of nonylphenol) and ball-milling the mixture to produce a stable suspension. The emulsifiable concentrates and suspensions were then diluted with water to give an aqueous composition of the required concentration suitable for use in the evaluation of the pre-emergence and post-emergence herbicidal activity of the compounds of the invention.
(§2) The post-emergent herbicidal activity of the compounds of the invention formulated as described in Example 30 was assessed by the following procedure.
(§3) The seeds of the test species were sown in rows 2 cm deep in soil contained in seed boxes. The monocotyledonous plants and the dicotyledonous plants were sown in separate seed boxes in duplicate. The four seed boxes were placed in a glasshouse, lightly watered with an overhead spray to initiate germination and then sub-irrigated as required for optimum plant growth. After the plants had grown to a height of about 10 to 12.5 cm one box of each of the monocotyledonous plants and the dicotyledonous plants was removed from the glasshouse and sprayed with the required quantity of a composition of the invention. After spraying the boxes were returned to the glasshouse for further 3 weeks and the effects of the treatment was visually assessed by comparison with the untreated controls. The results are presented in Table 4 where the damage to plants is rated on a scale of from 0 to 3 where 0 represents 0 to 25% damage, 3 represents 75 to 99% kill and 3+ represents 100% kill. A dash (-) means that no experiment was carried out.

Ipomea = experiment: Post-emergence herbicidal activity (Example 32); conditions: 5 kg/ha, 3 weeks after spraying
Method: as §1, §2, §3

Japanese millet = experiment: Post-emergence herbicidal activity (Example 32); conditions: 5 kg/ha, 3 weeks after spraying
Method: as §1, §2, §3

Mustard = experiment: Post-emergence herbicidal activity (Example 32); conditions: 5 kg/ha, 3 weeks after spraying
Method: as §1, §2, §3

Ryegrass = experiment: Post-emergence herbicidal activity (Example 32); conditions: 5 kg/ha, 3 weeks after spraying
Method: as §1, §2, §3

Sunflower = experiment: Post-emergence herbicidal activity (Example 32); conditions: 5 kg/ha, 3 weeks after spraying
Method: as §1, §2, §3

Wild Oats = experiment: Post-emergence herbicidal activity (Example 32); conditions: 5 kg/ha, 3 weeks after spraying
Method: as §1, §2, §3

Maize [1] = experiment: Pre-emergence herbicidal test, fibre trays (Example 33); parameters: key: 0 = 0-20% damage, 5 = complete kill, vs untreated control; conditions: 2.0 kg/ha, after 21 days
Method: (§4) The compounds were formulated for test by mixing an appropriate amount with 5 ml of an emulsion prepared by diluting 160 ml of a solution containing 21.S g per litre of "Span" 80 and 78.2 g per litre of "Tween" 20 in methylcyclohexanone to 500 ml with water. "Span" 80 is a Trade Mark for a surface-active agent comprising sorbitan monolaurate. "Tween" 20 is a Trade Mark for a surface-active agent comprising a condensate of sorbitan monolaurate with 20 molar proportions of ethylene oxide. Each 5 ml emulsion containing a test compound was'then diluted to 40 ml with water and sprayed on to young pot plants (post-emergence test) of the species named in Table 5 below. Damage to test plants was assessed after 14 days on a scale of 0 to 5 where 0 is 0 to 20% damage and 5 is complete kill. In a test for pre-emergence herbicidal activity, seeds of the test plants were sown in a shallow slit formed in the surface of soil in fibre trays. The surface was then levelled and sprayed, and fresh soil then spread thinly over the sprayed surface. Assessment of herbicidal damage was carried out after 21 days using the same scale of 0 to 5 as the post-emergence test. In both cases the degree of herbicidal damage was assessed by comparison with untreated control plants. A dash (-) means that no experiment was carried out.

Rice [2] = experiment: as above; conditions: 2.0 kg/ha, after 21 days
Method: as §4

Amaranthus retroflexus = experiment: as above; conditions: 2.0 kg/ha, after 21 days
Method: as §4

Cotton [3] = experiment: as above; conditions: 2.0 kg/ha, after 21 days
Method: as §4

Ipomea purpurea [4] = experiment: as above; conditions: 2.0 kg/ha, after 21 days
Method: as §4

Rape [5] = experiment: as above; conditions: 2.0 kg/ha, after 21 days
Method: as §4

Senecio vulgaris [6] = experiment: as above; conditions: 2.0 kg/ha, after 21 days
Method: as §4

Soy bean [7] = experiment: as above; conditions: 2.0 kg/ha, after 21 days
Method: as §4

Sugar beet [8] = experiment: as above; conditions: 2.0 kg/ha, after 21 days
Method: as §4

Winter wheat [9] = experiment: as above; conditions: 2.0 kg/ha, after 21 days
Method: as §4

Maize [10] = experiment: Post-emergence herbicidal test, young pot plants (Example 33); conditions: 2.0 kg/ha, after 14 days
Method: as §4

Rice [11] = experiment: as above; conditions: 2.0 kg/ha, after 14 days
Method: as §4

Winter wheat [12] = experiment: as above; parameters: key: 0 = 0-20% damage, 5 = complete kill, vs untreated control; conditions: 2.0 kg/ha, after 14 days
Method: as §4

Cotton [13] = experiment: as above; conditions: 2.0 kg/ha, after 14 days
Method: as §4

Ipomea purpurea [14] = experiment: as above; conditions: 2.0 kg/ha, after 14 days
Method: as §4

Rape [15] = experiment: as above; conditions: 2.0 kg/ha, after 14 days
Method: as §4

Senecio vulgaris [16] = experiment: as above; conditions: 2.0 kg/ha, after 14 days
Method: as §4

Soy bean [17] = experiment: as above; conditions: 2.0 kg/ha, after 14 days
Method: as §4

Sugar beet [18] = experiment: as above; conditions: 2.0 kg/ha, after 14 days
Method: as §4

## COC(=O)C(C)Oc1ccc(N(C)c2ccc([N+](=O)[O-])cc2[N+](=O)[O-])cc1 (centres unmarked) [Compound 18]
Wheat
  damage to plants, Wh: 2
Ipomea
  damage to plants, Ip: 0 (0 represents 0 to 25% damage)
Japanese millet
  damage to plants, Jm: 3+ (3+ represents 100% kill)
Mustard
  damage to plants, Ms: 0 (0 represents 0 to 25% damage)
Ryegrass
  damage to plants, Rg: 3+ (3+ represents 100% kill)
Sunflower
  damage to plants, Sf: 0 (0 represents 0 to 25% damage)
Wild Oats
  damage to plants, Ot: 3 (3 represents 75 to 99% kill)
Maize [1]
  herbicidal damage, Mz: 1
Rice [2]
  herbicidal damage, Rc: 1
Amaranthus retroflexus
  herbicidal damage, Am: 0 (0 is 0 to 20% damage)
Cotton [3]
  herbicidal damage, Ct: 0 (0 is 0 to 20% damage)
Ipomea purpurea [4]
  herbicidal damage, Ip: 0 (0 is 0 to 20% damage)
Rape [5]
  herbicidal damage, Rp: 1
Senecio vulgaris [6]
  herbicidal damage, Sn: 0 (0 is 0 to 20% damage)
Soy bean [7]
  herbicidal damage, Sy: 0 (0 is 0 to 20% damage)
Sugar beet [8]
  herbicidal damage, Sb: 0 (0 is 0 to 20% damage)
Winter wheat [9]
  herbicidal damage, Ww: 0 (0 is 0 to 20% damage)
Maize [10]
  damage to test plants, Mz: 2
Rice [11]
  damage to test plants, Rc: 0 (0 is 0 to 20% damage)
Winter wheat [12]
  damage to test plants, Ww: 0 (0 is 0 to 20% damage)
Cotton [13]
  damage to test plants, Ct: 0 (0 is 0 to 20% damage)
Ipomea purpurea [14]
  damage to test plants, Ip: 0 (0 is 0 to 20% damage)
Rape [15]
  damage to test plants, Rp: 0 (0 is 0 to 20% damage)
Senecio vulgaris [16]
  damage to test plants, Sn: 0 (0 is 0 to 20% damage)
Soy bean [17]
  damage to test plants, Sy: 0 (0 is 0 to 20% damage)
Sugar beet [18]
  damage to test plants, Sb: 1
